Values of other authors, collected in paper PMC6954965 (Neuropharmacology, 2019).
pKi: −log10 of the molar value.

Experiments:
PSD95 tandem PDZ domains = conditions: dimeric peptide inhibitor of PSD95 tandem PDZ domains; ref Bach et al., 2012
PICK1 PDZ domain = conditions: binds the PDZ domain of PICK1; ref Thorsen et al., 2010
Male Sprague-Dawley rats = conditions: administered directly into the nucleus accumbens shell; ref Schmidt et al., 2013

| Molecule | pKi (PSD95 tandem PDZ domains) | pKi (PICK1 PDZ domain) | reinstatement of cocaine seeking (Male Sprague-Dawley rats) |
| --- | --- | --- | --- |
| Tat-NPEG4(IEDTV)(2) | 8.34 | – | – |
| CCOC(=O)NC(=O)/C(C#N)=C/c1ccc(Cl)c(Cl)c1 [FSC231] | – | 5.00 | sufficient to attenuate |
